# Measurements reported in PubChem BioAssay (NCI).
#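 Here, GI50 denotes the concentration required for 50% inhibition of growth. TGI marks complete inhibition of growth.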
# Columns and labels:
# Assay in all cases: inhibition of tumour cell growth, NCI panel, 384-well format
# [1] = test system: SF-539 CNS
# [2] = test system: 786-0 renal
# [3] = test system: KM12 colon
# [4] = test system: K-562 leukemia
# [5] = test system: MDA-MB-435 melanoma
# [6] = test system: MDA-MB-468 breast
# [7] = test system: HL-60(TB) leukemia
# [8] = test system: M14 melanoma
# [9] = test system: SK-OV-3 ovarian
# [10] = test system: NCI-H522 lung
# [11] = test system: SK-MEL-28 melanoma
# [12] = test system: MOLT-4 leukemia
# [13] = test system: CAKI-1 renal
# [14] = test system: SR leukemia
# [15] = test system: DU-145 prostate
# [16] = test system: NCI-H23 lung
# [17] = test system: MDA-MB-231 breast
# [18] = test system: ACHN renal
# [19] = test system: OVCAR-5 ovarian
# [20] = test system: OVCAR-3 ovarian
# [21] = test system: IGROV1 ovarian
# [22] = test system: HS 578T breast
# [23] = test system: HOP-92 NSCLC
# [24] = test system: TK-10 renal
# [25] = test system: A498 renal
# [26] = test system: SF-268 CNS
# [27] = test system: UO-31 renal
# [28] = test system: UACC-62 melanoma
# [29] = test system: SNB-75 CNS
# [30] = test system: SK-MEL-2 melanoma
# [31] = test system: SN12C renal
# [32] = test system: NCI-H460 NSCLC
# [33] = test system: NCI-H322M lung
# [34] = test system: PC-3 prostate
# [35] = test system: MALME-3M melanoma
# [36] = test system: HCT-116 colon
# [37] = test system: BT-549 breast
# [38] = test system: U251 glioblastoma
# [39] = test system: SNB-19 CNS
# [40] = test system: A549 NSCLC
# [41] = test system: OVCAR-4 ovarian
# [42] = test system: HT29 colon
# [43] = test system: SW-620 colon
smiles,measurement,setting,value
C=CC(=O)Nc1cc2c(Nc3ccc(OCc4ccccn4)c(Cl)c3)ncnc2cc1OCCN1CCOCC1,GI50,[1],1250 nM
same,TGI,[1],2510 nM
same,GI50,[2],1350 nM
same,TGI,[2],2670 nM
same,GI50,[3],1750 nM
same,TGI,[3],3230 nM
same,GI50,[4],1490 nM
same,TGI,[4],2950 nM
same,GI50,[5],1540 nM
same,TGI,[5],2960 nM
same,TGI,[6],40.5 nM
same,GI50,[7],1530 nM
same,TGI,[7],2900 nM
same,GI50,[8],1650 nM
same,TGI,[8],3020 nM
same,GI50,[9],53.7 nM
same,TGI,[9],2350 nM
same,GI50,[10],131 nM
same,TGI,[10],1430 nM
same,GI50,[11],1550 nM
same,TGI,[11],2910 nM
same,GI50,[12],1580 nM
same,TGI,[12],2960 nM
same,GI50,[13],1180 nM
same,TGI,[13],2420 nM
same,GI50,[14],1520 nM
same,TGI,[14],2890 nM
same,GI50,[15],499 nM
same,TGI,[15],2120 nM
same,GI50,[16],1690 nM
same,TGI,[16],4250 nM
same,GI50,[17],1280 nM
same,TGI,[17],2910 nM
same,GI50,[18],98 nM
same,TGI,[18],1690 nM
same,GI50,[19],3490 nM
same,TGI,[19],> 100000 nM
same,GI50,[20],282 nM
same,TGI,[20],1880 nM
same,GI50,[21],27 nM
same,TGI,[21],1080 nM
same,GI50,[22],364 nM
same,TGI,[22],2080 nM
same,GI50,[23],1370 nM
same,TGI,[23],2780 nM
same,GI50,[24],30.5 nM
same,TGI,[24],1540 nM
same,GI50,[25],744 nM
same,TGI,[25],2200 nM
same,GI50,[26],1420 nM
same,TGI,[26],2810 nM
same,GI50,[27],1080 nM
same,TGI,[27],2330 nM
same,GI50,[28],1380 nM
same,TGI,[28],2680 nM
same,GI50,[29],1390 nM
same,TGI,[29],2920 nM
same,GI50,[30],1300 nM
same,TGI,[30],2580 nM
same,GI50,[31],1100 nM
same,TGI,[31],2730 nM
same,GI50,[32],1530 nM
same,TGI,[32],3160 nM
same,GI50,[33],18.3 nM
same,TGI,[33],1140 nM
same,GI50,[34],1650 nM
same,TGI,[34],3110 nM
same,GI50,[35],1700 nM
same,TGI,[35],3090 nM
same,GI50,[36],1480 nM
same,TGI,[36],2920 nM
same,GI50,[37],1160 nM
same,TGI,[37],2380 nM
same,GI50,[38],1520 nM
same,TGI,[38],2930 nM
same,GI50,[39],5380 nM
same,TGI,[39],18300 nM
same,GI50,[40],3110 nM
same,GI50,[41],1130 nM
same,TGI,[41],2500 nM
same,GI50,[42],1590 nM
same,TGI,[42],2990 nM
same,GI50,[43],1730 nM
same,TGI,[43],3160 nM
